# In PMC4001772 (The Journal of General Physiology, 2014):
# Assays:
# Experiment in all cases: inside-out patch clamp of Xenopus oocytes
# Type in all cases: cell-based
# CFTR [1] = target: T1, CFTR (Homo sapiens, UniProt P13569)
# CFTR [2] = target: CFTR (Homo sapiens, UniProt P13569, E1371S)
# CFTR [3] = target: CFTR (Homo sapiens, UniProt P13569, K1250A)
# CFTR [4] = target: T1, CFTR; remark: listed apart in the source
# T1 sequence (P13569 whole entry): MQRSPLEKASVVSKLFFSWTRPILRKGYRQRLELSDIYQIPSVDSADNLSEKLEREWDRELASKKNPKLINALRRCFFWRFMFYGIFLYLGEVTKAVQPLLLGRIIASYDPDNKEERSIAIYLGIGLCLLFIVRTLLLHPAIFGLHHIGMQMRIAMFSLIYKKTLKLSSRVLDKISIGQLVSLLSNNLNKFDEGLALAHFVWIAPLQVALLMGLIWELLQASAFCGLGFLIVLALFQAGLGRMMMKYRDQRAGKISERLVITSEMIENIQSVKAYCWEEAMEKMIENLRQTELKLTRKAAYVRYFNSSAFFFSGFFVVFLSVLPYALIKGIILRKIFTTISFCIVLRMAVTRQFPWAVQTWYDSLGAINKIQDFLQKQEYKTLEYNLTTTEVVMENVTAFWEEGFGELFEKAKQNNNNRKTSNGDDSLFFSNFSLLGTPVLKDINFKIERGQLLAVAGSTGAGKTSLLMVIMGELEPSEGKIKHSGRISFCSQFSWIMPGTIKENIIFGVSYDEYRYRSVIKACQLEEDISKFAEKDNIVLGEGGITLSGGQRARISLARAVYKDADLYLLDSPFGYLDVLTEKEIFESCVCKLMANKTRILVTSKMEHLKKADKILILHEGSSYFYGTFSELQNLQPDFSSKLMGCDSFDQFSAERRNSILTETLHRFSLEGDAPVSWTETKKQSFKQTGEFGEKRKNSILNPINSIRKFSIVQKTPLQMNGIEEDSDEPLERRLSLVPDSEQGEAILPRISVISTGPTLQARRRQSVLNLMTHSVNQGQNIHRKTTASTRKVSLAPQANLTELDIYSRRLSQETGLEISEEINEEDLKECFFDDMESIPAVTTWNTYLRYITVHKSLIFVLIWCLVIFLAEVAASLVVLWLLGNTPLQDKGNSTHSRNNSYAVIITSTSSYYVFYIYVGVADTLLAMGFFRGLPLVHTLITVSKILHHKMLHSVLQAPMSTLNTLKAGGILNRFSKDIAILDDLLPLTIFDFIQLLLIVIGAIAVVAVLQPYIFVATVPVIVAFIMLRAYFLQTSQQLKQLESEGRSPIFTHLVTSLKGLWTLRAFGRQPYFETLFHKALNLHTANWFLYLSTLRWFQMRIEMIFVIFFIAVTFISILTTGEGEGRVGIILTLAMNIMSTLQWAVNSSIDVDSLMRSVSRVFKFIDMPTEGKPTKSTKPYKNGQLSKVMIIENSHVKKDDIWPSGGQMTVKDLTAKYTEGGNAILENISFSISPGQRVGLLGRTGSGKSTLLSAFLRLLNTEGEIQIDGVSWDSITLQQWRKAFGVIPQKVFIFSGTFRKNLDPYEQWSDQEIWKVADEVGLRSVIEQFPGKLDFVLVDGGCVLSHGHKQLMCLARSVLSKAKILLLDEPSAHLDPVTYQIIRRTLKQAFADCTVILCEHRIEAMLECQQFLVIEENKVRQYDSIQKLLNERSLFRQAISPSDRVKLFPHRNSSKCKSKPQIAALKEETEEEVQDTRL
# Chain of CFTR (Homo sapiens, UniProt P13569, E1371S) (P13569 whole entry E1371S): as the sequence (P13569 whole entry) above, with E1371S counted along it
# Chain of CFTR (Homo sapiens, UniProt P13569, K1250A) (P13569 whole entry K1250A): as the sequence (P13569 whole entry) above, with K1250A counted along it
Structure (SMILES),Ki (CFTR [1]),Ki (CFTR [2]),EC50 (CFTR [3]),EC50 (CFTR [4])
O=S(=O)(O)CCCN1CCOCC1 [MOPS],~15000 µM,~8000 µM,–,–
"O=C(O)c1cc([N+](=O)[O-])ccc1NCCCc1ccccc1 [NPPB, 5-nitro-2-(3-phenylpropylamino)benzoate]",–,~20 µM,~100 µM,~90 µM
